# Experimental data taken from ChEMBL document CHEMBL1201862, “PubChem BioAssay data set” (2004).
#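 All cell lines were grown in 96-well plates and treated with compound for 48 hours. GI50 is the concentration that inhibits growth by half.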 Calls of active or inactive are those of the source. Cut-off read from the data, not from the text of the source: active = GI50 up to about 1.1 µM and inactive = higher.
# Columns and labels:
# Assay in all cases: DTP human tumour cell line panel, 48 h
# [1] = system: SNB-19
# [2] = system: NCI-H522
# [3] = system: MCF7
# [4] = system: UO-31
# [5] = system: MDA-MB-435
# [6] = system: COLO 205
# [7] = system: MOLT-4
# [8] = system: NCI/ADR-RES
# [9] = system: HT-29
# [10] = system: MDA-MB-231
# [11] = system: SK-OV-3
# [12] = system: SN12C
# [13] = system: SK-MEL-28
# [14] = system: U-251
# [15] = system: HCC 2998
# [16] = system: Malme-3M
# [17] = system: SR
# [18] = system: A498
# [19] = system: SK-MEL-2
# [20] = system: SNB-75
SMILES,GI50 [1],GI50 [2],GI50 [3],GI50 [4],GI50 [5],GI50 [6],GI50 [7],GI50 [8],GI50 [9],GI50 [10],GI50 [11],GI50 [12],GI50 [13],GI50 [14],GI50 [15],GI50 [16],GI50 [17],GI50 [18],GI50 [19],GI50 [20]
O=C1/C(=C/C=C/c2ccccc2)CCC1CNc1ccc(Br)cc1 (stereo not given),> 100 µM (inactive),21.3 µM (inactive),21 µM (inactive),48.4 µM (inactive),44.5 µM (inactive),20.8 µM (inactive),24.3 µM (inactive),> 10 µM (inactive),> 100 µM (inactive),23.1 µM (inactive),88.1 µM (inactive),4.51 µM (inactive),> 100 µM (inactive),> 100 µM (inactive),78 µM (inactive),0.106 µM (active),23.3 µM (inactive),68.9 µM (inactive),,
Cc1cc(C(O)CNC(C)CCn2cnc3c2c(=O)n(C)c(=O)n3C)ccc1O (stereo not given),> 100 µM (inactive),> 100 µM (inactive),> 100 µM (inactive),> 100 µM (inactive),> 100 µM (inactive),> 100 µM (inactive),> 100 µM (inactive),> 100 µM (inactive),> 100 µM (inactive),> 100 µM (inactive),> 100 µM (inactive),> 100 µM (inactive),> 100 µM (inactive),> 100 µM (inactive),,> 100 µM (inactive),> 100 µM (inactive),> 100 µM (inactive),> 100 µM (inactive),> 100 µM (inactive)
O=C1/C(=C\c2ccc([N+](=O)[O-])o2)SC2NC(COc3ccc(Cl)cc3)=NN12 (stereo not given),16.7 µM (inactive),2.22 µM (inactive),2.12 µM (inactive),4.62 µM (inactive),4.2 µM (inactive),3.37 µM (inactive),3.02 µM (inactive),6.4 µM (inactive),6.05 µM (inactive),3.31 µM (inactive),24 µM (inactive),14 µM (inactive),4.17 µM (inactive),19.3 µM (inactive),,2.4 µM (inactive),3.47 µM (inactive),23.7 µM (inactive),18.9 µM (inactive),15.5 µM (inactive)
O=C(Nc1nnc(-c2c(Cl)c(Cl)c(Cl)c(Cl)c2-c2nc3cc(C(=O)c4ccccc4)ccc3[nH]2)o1)c1ccccc1,15.2 µM (inactive),,10.9 µM (inactive),31.8 µM (inactive),3.89 µM (inactive),12.2 µM (inactive),13.7 µM (inactive),14 µM (inactive),23.8 µM (inactive),17.7 µM (inactive),18.9 µM (inactive),15.3 µM (inactive),12.1 µM (inactive),13.6 µM (inactive),,,4.9 µM (inactive),18.2 µM (inactive),17.7 µM (inactive),15.1 µM (inactive)
COc1ccc(C2Oc3c(cccc3-c3c(-c4ccc(O)cc4)oc4cc(O)cc(O)c4c3=O)C(=O)C2O)cc1O (stereo not given),> 100 µM (inactive),,> 100 µM (inactive),> 100 µM (inactive),> 100 µM (inactive),> 100 µM (inactive),> 100 µM (inactive),> 100 µM (inactive),> 100 µM (inactive),> 100 µM (inactive),> 100 µM (inactive),> 100 µM (inactive),> 100 µM (inactive),> 100 µM (inactive),> 100 µM (inactive),> 100 µM (inactive),> 100 µM (inactive),> 100 µM (inactive),,60.4 µM (inactive)
CN(C(=O)Nc1ccc(Cl)c(Cl)c1)C1CCCC[C@@H]1N1CCCC1 (stereo not given in full),66.7 µM (inactive),41.7 µM (inactive),33.6 µM (inactive),19.3 µM (inactive),33 µM (inactive),18.1 µM (inactive),19.6 µM (inactive),72.4 µM (inactive),29.4 µM (inactive),47.9 µM (inactive),> 100 µM (inactive),> 100 µM (inactive),21.7 µM (inactive),53.7 µM (inactive),,22 µM (inactive),21 µM (inactive),24.2 µM (inactive),38.3 µM (inactive),40.2 µM (inactive)
COc1ccc(-c2oc3cc(OC)c(OC)c(O)c3c(=O)c2OC)cc1,28.4 µM (inactive),33.7 µM (inactive),41.6 µM (inactive),> 100 µM (inactive),> 100 µM (inactive),> 100 µM (inactive),> 100 µM (inactive),80.5 µM (inactive),> 100 µM (inactive),17 µM (inactive),22.7 µM (inactive),80.4 µM (inactive),> 100 µM (inactive),34 µM (inactive),> 100 µM (inactive),> 100 µM (inactive),> 100 µM (inactive),,30.6 µM (inactive),15.4 µM (inactive)
CCOc1cc(CCNC)c2c(ccc3ccc(OC)c(O)c32)c1OC,16.1 µM (inactive),5.14 µM (inactive),8.47 µM (inactive),15.6 µM (inactive),12.6 µM (inactive),19 µM (inactive),5.82 µM (inactive),19.2 µM (inactive),14.8 µM (inactive),13.4 µM (inactive),14.4 µM (inactive),16.1 µM (inactive),17.9 µM (inactive),18.3 µM (inactive),15.5 µM (inactive),6.92 µM (inactive),4.44 µM (inactive),,14.2 µM (inactive),16 µM (inactive)
CC(C)C1(NC(=O)C2CC3c4cccc5[nH]cc(c45)CC3N(C)C2)OC2(O)C3CCCN3C(=O)C(Cc3ccccc3)N2C1=O (stereo not given),57.7 µM (inactive),38.9 µM (inactive),13.6 µM (inactive),12.9 µM (inactive),19.4 µM (inactive),14.2 µM (inactive),3.81 µM (inactive),35.4 µM (inactive),11.6 µM (inactive),17.7 µM (inactive),,> 100 µM (inactive),24.9 µM (inactive),34.3 µM (inactive),19 µM (inactive),,12.9 µM (inactive),,29.2 µM (inactive),6.71 µM (inactive)
O=C(O)Cc1ccc(-n2nnc3c(=O)[nH][nH]c(=O)c32)cc1,> 100 µM (inactive),,> 100 µM (inactive),> 100 µM (inactive),> 100 µM (inactive),> 100 µM (inactive),> 100 µM (inactive),> 100 µM (inactive),> 100 µM (inactive),> 100 µM (inactive),,> 100 µM (inactive),> 100 µM (inactive),> 100 µM (inactive),> 100 µM (inactive),> 100 µM (inactive),> 100 µM (inactive),,> 100 µM (inactive),
CN(C)c1nc2oc(-c3ccccc3)c(-c3ccccc3)c2c2nnnn12,> 100 µM (inactive),> 100 µM (inactive),> 100 µM (inactive),> 100 µM (inactive),> 100 µM (inactive),> 100 µM (inactive),> 100 µM (inactive),> 100 µM (inactive),> 100 µM (inactive),> 100 µM (inactive),> 100 µM (inactive),> 100 µM (inactive),> 100 µM (inactive),> 100 µM (inactive),> 100 µM (inactive),,> 100 µM (inactive),> 100 µM (inactive),,41.1 µM (inactive)
N#Cc1nc(-c2cc([N+](=O)[O-])cc([N+](=O)[O-])c2)oc1N,> 10 µM (inactive),> 10 µM (inactive),> 10 µM (inactive),8.93 µM (inactive),> 10 µM (inactive),> 10 µM (inactive),> 10 µM (inactive),> 10 µM (inactive),> 10 µM (inactive),> 10 µM (inactive),> 10 µM (inactive),> 10 µM (inactive),> 10 µM (inactive),,> 10 µM (inactive),> 10 µM (inactive),> 10 µM (inactive),,,> 10 µM (inactive)
O=C(NCCc1n[nH]c2c1C(=O)C=C(Nc1ccccc1)C2=O)OCc1ccccc1,> 100 µM (inactive),> 100 µM (inactive),> 100 µM (inactive),> 100 µM (inactive),> 100 µM (inactive),> 100 µM (inactive),> 100 µM (inactive),> 100 µM (inactive),> 100 µM (inactive),> 100 µM (inactive),> 100 µM (inactive),> 100 µM (inactive),,> 100 µM (inactive),,,> 100 µM (inactive),> 100 µM (inactive),> 100 µM (inactive),> 100 µM (inactive)
COC(=O)c1ccc(C)cc1C1CN=NC12Cc1cccc(C)c1C2=O (stereo not given),> 100 µM (inactive),28.1 µM (inactive),91.2 µM (inactive),26.7 µM (inactive),18.9 µM (inactive),30.5 µM (inactive),19.6 µM (inactive),25.4 µM (inactive),71.6 µM (inactive),> 100 µM (inactive),90.4 µM (inactive),52.7 µM (inactive),30.7 µM (inactive),79.1 µM (inactive),42.2 µM (inactive),27.8 µM (inactive),82.8 µM (inactive),,23.8 µM (inactive),34.2 µM (inactive)
CCCCCC[C@H]([C@H](C)O)n1cnc2c(N)ncnc21,> 100 µM (inactive),,> 100 µM (inactive),91.8 µM (inactive),> 100 µM (inactive),> 100 µM (inactive),> 100 µM (inactive),> 100 µM (inactive),> 100 µM (inactive),> 100 µM (inactive),> 100 µM (inactive),> 100 µM (inactive),49.3 µM (inactive),> 100 µM (inactive),> 100 µM (inactive),> 100 µM (inactive),> 100 µM (inactive),,> 100 µM (inactive),62.7 µM (inactive)
